Results taken from ChEMBL document CHEMBL4339241, “Meroterpenoids with BACE1 Inhibitory Activity from the Fruiting Body of Boletinus asiaticus” (J Nat Prod, 2019).

Molecular target: Beta-secretase 1 (Homo sapiens, UniProt P56817)
Test: Inhibition of BACE1 (unknown origin) using Rh-EVNNLDAEFK-Quencher substrate incubated for 3 hrs by FRET assay

Beta-secretase 1, sequence (P56817 whole entry): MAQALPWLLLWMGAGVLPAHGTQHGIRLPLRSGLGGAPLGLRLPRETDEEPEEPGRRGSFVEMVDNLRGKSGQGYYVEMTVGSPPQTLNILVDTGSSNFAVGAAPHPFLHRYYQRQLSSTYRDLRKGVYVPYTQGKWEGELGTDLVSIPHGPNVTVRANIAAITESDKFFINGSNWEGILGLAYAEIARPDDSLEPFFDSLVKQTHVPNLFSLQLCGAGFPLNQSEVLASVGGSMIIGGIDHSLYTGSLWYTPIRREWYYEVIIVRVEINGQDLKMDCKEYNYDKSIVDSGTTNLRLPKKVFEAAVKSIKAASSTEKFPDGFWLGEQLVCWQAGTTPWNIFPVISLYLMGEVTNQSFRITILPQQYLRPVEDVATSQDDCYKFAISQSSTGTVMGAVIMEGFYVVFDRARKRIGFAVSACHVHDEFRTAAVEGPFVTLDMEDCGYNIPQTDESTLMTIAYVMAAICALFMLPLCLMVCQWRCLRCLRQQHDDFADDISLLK

IC50 [µM]	Structure (SMILES)
2	C/C(=C\CC/C(C)=C/Cc1cc(C(=O)O)ccc1O)CC/C=C(\C)CC/C=C(\C)C(=O)O
14.7	C=C(CC/C=C(\C)CC/C=C(\C)C(=O)O)C(O)CC/C(C)=C/Cc1cc(C(=O)O)ccc1O (racemic)
11.4	C/C(=C\CC/C(C)=C/CCC1(C)C=Cc2cc(C(=O)O)ccc2O1)CC/C=C(\C)C(=O)O (racemic)
